According to patent US20180235221A1 (priority 2015, published 2018):
Where two headings read alike, the source gives them in different places.

Test system: Qol resistant Pyricularia oryzae isolate (1328)
Assay type: cell-based
Settings: single active compound, MTP, 405 nm, 7 days after inoculation

Compound: CNC(=O)C(=N/OC)/C(C)=C\COc1ccn(-c2ccc(Cl)cc2)n1 [Compound I-1, (Z,2E)-5-[1-(4-chlorophenyl)pyrazol-3-yl]oxy-2-methoxyimino-N,3-dimethyl-pent-3-enamide]
- Observed efficacy (0.063 ppm): 1%
- Observed efficacy (0.25 ppm): 65%

Compound: Cc1cccc(-n2nnn(C)c2=O)c1COc1ccn(-c2ccc(Cl)cc2)n1 [II-3, 1-[2-[[1-(4-chlorophenyl)pyrazol-3-yl]oxymethyl]-3-methyl-phenyl]-4-methyl-tetrazol-5-one]
- Observed efficacy (0.016 ppm): 44%

Compound: CNC(=O)C(=N/OC)/C(C)=C\COc1ccn(-c2ccc(Cl)cc2Cl)n1 [Compound I-3, (Z,2E)-5-[1-(2,4-dichlorophenyl)pyrazol-3-yl]oxy-2-methoxyimino-N,3-dimethyl-pent-3-en-amide]
- Observed efficacy (0.063 ppm): 2%
- Observed efficacy (0.25 ppm): 54%

Compound: Cn1nnn(-c2cccc(F)c2COc2ccn(-c3ccc(Cl)cc3)n2)c1=O [II-4, 1-[2-[[1-(4-chlorophenyl)pyrazol-3-yl]oxymethyl]-3-fluoro-phenyl]-4-methyl-tetrazol-5-one]
- Observed efficacy (0.063 ppm): 1%

Compound: CC(=NOCc1c(C)cccc1-n1nnn(C)c1=O)c1cccc(C(F)(F)F)c1 [II-11, -methyl-4-[3-methyl-2-[[1-[3-(trifluoromethyl)-phenyl]-ethylideneamino]oxymethyl]phenyl]tetrazol-5-one]
- Observed efficacy (0.063 ppm): 2%

Compound: Cn1nnn(-c2cccc(F)c2COc2ccn(-c3ccc(Cl)cc3Cl)n2)c1=O [II-5, 1-[2-[[1-(2,4-dichlorophenyl)pyrazol-3-yl]oxymethyl]-3-fluoro-phenyl]-4-methyl-tetrazol-5-one]
- Observed efficacy (0.25 ppm): 44%

Compound: Cn1nnn(-c2cccc(Br)c2COc2ccn(-c3ccc(Cl)cc3)n2)c1=O [II-2, 1-[3-bromo-2-[[1-(4-chlorophenyl)pyrazol-3-yl]oxymethyl]phenyl]-4-methyl-tetrazol-5-one]
- Observed efficacy (0.016 ppm): 2%

Compound: Cn1nnn(-c2cccc(Cl)c2COc2ccn(-c3ccc(Cl)cc3)n2)c1=O [II-1, 1-[3-chloro-2[[1-(4-chlorophenyl)-1H-pyrazol-3-yl]oxymethyl]phenyl]-4-methyl-tetrazol-5-one]
- Observed efficacy (0.016 ppm): 0%
